Source: patent US7273604B2, “Anti-asthmatic combinations comprising surface active phospholipids” (Britannia Pharmaceuticals Limited, priority 1998, dated 2007)
Where “and” joins values, the source holds several entries; their conditions need not be identical. Equal entries are not always repeated.

Tested on: bronchial epithelium
Assay: Binding (adsorption) of 14C-labelled DPPC to bronchial epithelium sections, liquid scintillation counting
Set-up: species or system porcine
Procedure: • L-α-Phosphatidylcholine, 1,2-di[1-^14 C]palmitoyl in Toluene:Ethanol (1:1 v/v), 114 mCi/mmol, 50 μCi in 2 mL (CFA6O4 B36, Amersham) • L-α-Phosphatidylcholine, dipalmitoyl (C16:0) (P-6267, Sigma) • DL-α-Phosphatidyl-DL-glycerol, dipalmitoyl (C16:0) (P-5650, Sigma) • Egg Phosphatidylglycerol (Batch 24756, Macfarlan Smith, Ltd.) • Sodium Chloride, 0.9%, B.P. (Baxter Healthcare) • Calcium Chloride (C-4901, Sigma) • Toluene (T-4428, Sigma) • Ethanol, AnalaR (10107.7Y, BDH) • NCS-II Tissue Solubilizer, 0.5N Solution (NNCS-502), Amersham) • OCS Organic Counting Scintillant (NOCS104, Amersham) In preparation for the dispersions in which the epithelium would be incubated, stock solutions of the phospholipid components were prepared on the first day of Run 1. These solutions were as follows: • L-α-DPPC, 2.4 mg. mL^−1 in toluene:ethanol, 1:1 • DL-α-DPPG, 3.0 mg. mL^−1 in toluene:ethanol, 1:1 • Egg PG, 3.0 mg. mL^−1 in toluene:ethanol, 1:1 All of the above solutions were stored at 4° C. in glass vials, the threads of which were sealed with teflon tape to minimise evaporation of the solvent. Each glass vial was then placed inside a second, tightly capped glass vial. These solutions were used for each of the five runs in the trial. A solution of 200 mg. L^−1 CaCl^2 in 0.9% saline was also prepared on the first day of Run 2 and was used in each of Runs 2 to 5. […]
Four dispersions were prepared on the first day of each run. […] In addition, Group 2 received 5.5 μL (16.5 μg) DL-α-DPPG, while the same quantity of egg PG was added to Group 3. […] When the number of sections was increased, the volumes of all components were increased accordingly, keeping all quantities in the same proportions as above. […]

## CCCCCCCCCCCCCCCC(=O)OCC(COP(=O)(O)OCC(O)CO)OC(=O)CCCCCCCCCCCCCCC (racemic) [DPPG, DL-α-Phosphatidyl-DL-glycerol, dipalmitoyl (C16:0)]
DPPC in the presence of the named phosphatidyl glycerol, 1:1, compared with DPPC only
  binding of DPPC to bronchial epithelium (in words): increased binding of DPPC to bronchial epithelium

## CCCCCCCCCCCCCCCC(=O)OC[C@H](COP(=O)([O-])OCC[N+](C)(C)C)OC(=O)CCCCCCCCCCCCCCC [DPPC, dipalmitoyl phosphatidyl choline]
Individual sections, incubation at 37° C. for 24 h in 0.9% saline dispersion, rinsed 20 times
  Total DPPC Adsorbed to Bronchial Epithelium: 0.280 μg/cm^2 and 0.528 μg/cm^2 and 0.192 μg/cm^2 and 0.340 μg/cm^2 and 0.321 μg/cm^2 and 0.341 μg/cm^2 and 0.299 μg/cm^2 and 0.219 μg/cm^2 and 0.116 μg/cm^2 and 0.276 μg/cm^2
Mean of n 10 sections, incubation at 37° C. for 24 h in 0.9% saline dispersion, rinsed 20 times
  Total DPPC Adsorbed to Bronchial Epithelium, Mean: 0.291 μg/cm^2
